# Experiment: Inhibition of TCDD-induced EROD activity in human HepG2 cells after 24 hrs
# Assay type: cell-based
row,IC50 [nM],SMILES
1,3000,CC(=O)N1/C(=C2\N=c3ccccc3=C2c2c(C3=Nc4ccccc4C3=O)[nH]c3ccccc23)C(=O)c2ccccc21
2,320,O=c1cc(-c2ccccc2)oc2c1ccc1ccccc12 [ALPHA-NAPHTHOFLAVONE]
3,800,O=C1C(c2[nH]c3ccccc3c2C2=c3ccccc3=N/C2=C2\Nc3ccccc3C2=O)=Nc2ccccc21 [BISINDIGOTIN]

# Reference: ChEMBL document CHEMBL1158711, “Bisindigotin, a TCDD antagonist from the Chinese medicinal herb Isatis indigotica” (J Nat Prod, 2005)
